These results are taken from PMC10222839, “Development of Novel Small-Molecule Activators of Pyruvate Kinase Muscle Isozyme 2, PKM2, to Reduce Photoreceptor Apoptosis” (Pharmaceuticals, 2023).

In data set [1] the test system is caspase 8 activation in 661W cells. Briefly: Caspase 8 activity assay in 661W cells (Caspase-Glo 8). The data set is classed as cell-based. The protocol:
(§1) To be confident the pyridazinoindolone core could be utilized in future medicinal chemistry efforts, its photoreceptor neuroprotective effect was assessed. […] Fas signaling has a critical role in caspase activation and photoreceptor apoptosis after experimental retinal detachment. 661W cells die via caspase-mediated mechanisms, and the Fas-ligand (FasL) treatment of these cells leads to the activation of caspases and subsequent death, analogous to the in vivo experimental retinal detachment model. Furthermore, similar to photoreceptors, 661W cells express PKM2 (Figure 4a), and these cells have been used to garner information on the role of metabolism in photoreceptor degeneration. As such, this is a suitable in vitro model of photoreceptor stress that can be utilized to assess the consequences of reprogramming metabolism by pharmacologically activating PKM2 [9]. 661W cells were treated with FasL and either compound 2 or vehicle (DMSO).
(§2) Caspase 8 and caspase 3/7 activity was measured using luminescent assay kits (Caspase-Glo 8 and 3/7 Assay Systems, Promega, Madison, WI, USA, Cat Nos. G8200 and G8090, respectively). […] As previously published, caspase activity was measured 8 h after treatment by incubating cells with substrate for 1 h as per the manufacturer’s instructions. A plate reader luminometer (BMG Labtech, Inc., Cary, NC, USA) assessed luminescence.

Data set [2] concerns the target T1, pyruvate kinase (PK) activity in 661W cells (Mus musculus, UniProt P52480).
T1 construct: endogenous in cells; host or cells: 661W photoreceptor-like cells
Briefly: PK activity in 661W cell lysates after 2 h incubation with activator. The data set is classed as cell-based. The protocol:
The potency and efficacy of each compound, 1 through 5, was assessed with recombinant human PKM2 using an enzyme-coupled assay that uses lactate dehydrogenase and measures the reduction in NADH via absorbance at 340 nm. […] To assess the ability of this pyridazinoindolone series of compounds to cross cellular membranes and increase PK activity, we utilized 661W cells, which are immortalized photoreceptor-like cells that express cone markers.
Cell culture. Next, 661W cells were incubated with either DMSO or different concentrations of small-molecule PKM2 activator for 2 h, lysed and homogenized in RIPA Lysis and Extraction Buffer (Thermo Fisher, Waltham, MA, USA, Cat No. 89900) with protease inhibitors (Complete-Mini, Roche Diagnostics, Indianapolis, IN, USA), and centrifuged at 10,000 rpm for 10 min to remove cellular debris. The supernatant (4–8 μL) was then used to assess the pyruvate kinase activity as described above. The total protein content was determined using the Pierce BCA protein assay kit (Thermo Fisher, Waltham, MA, USA, Cat No. 23225) with the Pierce™ Bovine Serum Albumin Standard Pre-Diluted Set (Thermo Fisher, Waltham, MA, USA, Cat No. 23208) and used to normalize activity as described previously.

In data set [3] the target is T2, pyruvate kinase (PK) activity in rat retina (Rattus norvegicus, UniProt P11980).
T2 construct: the retina from each rat eye was dissected from the RPE-choroid, homogenized, and lysed; from tissue; host or cells: retina of adult Brown-Norway rats
T2 sequence (P11980 1-531 isoform P11980-2): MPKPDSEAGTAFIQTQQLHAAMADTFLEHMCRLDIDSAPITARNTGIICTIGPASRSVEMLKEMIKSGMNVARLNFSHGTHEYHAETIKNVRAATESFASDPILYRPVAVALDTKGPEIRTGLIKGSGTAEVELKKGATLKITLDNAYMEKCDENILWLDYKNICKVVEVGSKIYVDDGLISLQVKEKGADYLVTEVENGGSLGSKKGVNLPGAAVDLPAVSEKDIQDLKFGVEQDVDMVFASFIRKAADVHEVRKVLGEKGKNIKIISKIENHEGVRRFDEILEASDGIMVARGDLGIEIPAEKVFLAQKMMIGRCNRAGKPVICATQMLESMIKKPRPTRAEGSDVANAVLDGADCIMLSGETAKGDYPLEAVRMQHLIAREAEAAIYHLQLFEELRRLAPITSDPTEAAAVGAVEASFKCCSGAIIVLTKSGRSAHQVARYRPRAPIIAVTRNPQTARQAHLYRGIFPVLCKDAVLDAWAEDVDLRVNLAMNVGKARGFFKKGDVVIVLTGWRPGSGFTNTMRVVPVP
Kind of data set: PK activity in rat retina after intravitreal injection. In kind it is in vivo. The conditions noted are these: increasing concentrations, intravitreal injection in rats, retina 4 h. The protocol:
The intravitreal injection of medications has revolutionized how numerous retinal diseases are treated and are ever-increasing in ophthalmic clinical practice. Therefore, to assess the ability of these small molecules to activate PK in vivo in the rat retina, we utilized this well-accepted drug delivery method. Two microliters of each respective compound at 850 μM or DMSO were intravitreally injected into rat eyes. The vitreous volume of the rat eye was assumed to be 15 μL, giving a final intravitreal concentration of approximately 100 μM for each compound after injection. Retinas were harvested four hours after injection, lysed, and assayed for PK activity as previously described. The eyes treated with DMSO served as the control upon which PK activation was based.
Two microliters of each respective compound at 8.5 μM (final vitreous concentration of 1 μM) or DMSO was intravitreally injected into rat eyes, and the PK activity was assessed four hours later.
Animals. Intravitreal injections of various small-molecule PKM2 activators or vehicle (DMSO) were performed in Brown-Norway adult rats. The rats were anesthetized with ketamine (90 mg/mL) and xylazine (10 mg/mL) and their pupils dilated with topical phenylephrine (2.5%) and tropicamide (1%) as described previously. A sclerotomy was created with a 25-gauge microvitreoretinal blade (Walcott Rx Products, Ocean View, NJ, USA) just posterior to the limbus. A blunt 35-gauge cannula was inserted through this sclerotomy into the vitreous cavity to deliver 2 μL of different concentrations of small-molecule activator or DMSO. This injection volume produces minimal reflux with adequate reproducibility. Fifteen microliters of vitreous volume was assumed in rats to calculate the intravitreal concentrations of the compound after injection. As we have previously described, left eyes were treated with small-molecular activator, while right eyes were treated with DMSO, which served as the control upon which pyruvate kinase activation was based. Four hours later, the retina from each rat eye was dissected from the RPE-choroid, homogenized, and lysed in RIPA Lysis and Extraction Buffer with protease inhibitors. The pyruvate kinase (PK) activity assay, as described above, was performed using 4 to 8 microliters of rat retinal lysate, similar to what we and others have previously described. Analogous to the cell culture assays, the total protein of the lysate was used to normalize pyruvate kinase activity.

The subject of data set [4] is caspase 3 and 7 activation in 661W cells. Briefly: Caspase 3/7 activity assay in 661W cells (Caspase-Glo 3/7). In kind it is cell-based. The protocol: as §1, §2
Data set [5] is described as follows: Aqueous solubility (Eurofins Panlabs, HPLC-UV/Vis). To be noted: aqueous buffer, kinetic from dmso stock; PBS, pH 7.4, 24 h, room temperature (Table 1). In kind it is physicochemical. The protocol:
In brief, each compound was tested at a concentration of 200 μM in PBS, pH 7.4, and room temperature. […] The area of the principal peak in a calibration standard for each compound (200 μM) in organic solvent (60/40 v/v% methanol: water) was compared to the area of the corresponding peak in the PBS sample [42]. Compounds 16–21 underwent solubility testing at Analiza (Cleveland, OH, USA), a contract research organization. Five hundred microliters of PBS, pH 7.4 was added to each amount of compound provided. The samples were vortexed briefly and then placed on a rotary shaker at 200 RPM for 24 h at ambient temperature. Thereafter, the samples were vacuum filtered through a 0.45-micron membrane, and the filtrates were injected into a nitrogen detector for quantification. The nitrogen detector was calibrated using standards, and the filtrates were quantitated based on the calibration curve.

The mark [6] stands for this setting: no FasL, concentration near AC50 or more than 10-fold greater.

≈ marks a conversion by molar mass, not a printed value.

T1 sequence (P52480 whole entry): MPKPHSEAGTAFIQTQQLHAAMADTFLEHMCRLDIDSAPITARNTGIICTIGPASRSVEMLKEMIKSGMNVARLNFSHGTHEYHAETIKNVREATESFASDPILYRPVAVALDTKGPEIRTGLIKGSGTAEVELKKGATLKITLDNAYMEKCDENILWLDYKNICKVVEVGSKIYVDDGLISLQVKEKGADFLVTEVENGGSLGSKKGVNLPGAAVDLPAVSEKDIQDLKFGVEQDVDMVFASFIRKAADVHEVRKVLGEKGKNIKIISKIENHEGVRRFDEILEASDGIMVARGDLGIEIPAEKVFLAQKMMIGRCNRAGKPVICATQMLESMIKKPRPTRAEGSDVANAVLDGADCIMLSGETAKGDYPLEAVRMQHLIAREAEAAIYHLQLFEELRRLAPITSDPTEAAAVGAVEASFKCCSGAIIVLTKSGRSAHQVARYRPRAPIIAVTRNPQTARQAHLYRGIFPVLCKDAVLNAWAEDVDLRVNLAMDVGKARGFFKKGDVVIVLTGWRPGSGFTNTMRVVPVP

Regarding `Cn1c2cc([S+](C)[O-])ccc2c2cnn(Cc3cccc(N)c3)c(=O)c21` (stereo not drawn) [Compound 2], the “caspase 8 activation” value in data set [1] (in presence of 500 ng/mL FasL, all concentrations tested, 8 h, versus DMSO) is reported as “significantly decreased”. Besides, the “caspase 8 activity, compound alone” value in data set [1] (setting [6]) is listed as “no significant effect”. In addition, the results for the AC50 in data set [2] (n = 3) and in data set [3] (read-out: in vivo AC50) were 120 ± 45 nM and 299 ± 42 nM, respectively. For the same molecule, the Emax was 355 ± 26% in data set [2] (n = 3, read-out: 661W Cells Max Activation) and 183 ± 4% in data set [3] (rat, normalized to DMSO, read-out: in vivo PK activity (maximum activation)). In addition, in data set [4] (in presence of 500 ng/mL FasL, highest concentration tested, 8 h, versus DMSO), the “caspase 3 and 7 activation” value is listed as “significantly decreased”. Further, in data set [4] (setting [6]), the “caspase 3 and 7 activity, compound alone” value is “no significant effect”. For the same molecule, the solubility at 24 h in data set [5] is 99.8 µM (≈ 36.6 µg/mL).

The AC50 is the midpoint of the concentration-response curve, whichever way the signal moves. What is called solubility is the concentration that dissolves in the medium under given conditions.
